Key:
COX-2 = COX-2 expression in colon of AOM-treated mice (western blot); format: in vivo, ICR mice; conditions: western blot of colon mucosa
Protocol: (§1) Male ICR mice at 5 weeks of age were purchased from the BioLASCO Experimental Animal Center (Taiwan Co., Ltd). After 1 week of acclimation, animals were randomly distributed into control and experimental groups. All animals were housed in a controlled atmosphere (25±1° C. at 50% relative humidity) and with a 12-hour light/12-hour dark cycle. Animals had free access to food and water at all times. Food cups were replenished with fresh diet every day. The experimental protocol is illustrated in FIG. 6. Mice were divided into 6 groups. One group (negative control) was fed standard diet; one group (positive control) was fed standard diet but injected with azozymethane (AOM) twice a week for 2 weeks; the remaining 4 groups had AOM injection and dietary supplementation of different levels of EGCG esters (1a and EGCG-DHA ester mixture containing predominantly 1c and its homologues). 9(b): Identification of ACF The formalin-fixed colonic tissues were cut into proximal (1-2 cm from the cecum), middle (3-4 cm) and distal (1-2 cm from anus) segments and stained in 0.2% methylene blue solution for 10 min. Methylene blue-stained ACF in each focus were counted under a microscope (×40). The ACF location (distance from anus) and size (number of aberrant crypts) were recorded. […] The densities of the bands were quantitated with a computer densitometer (AlphaImager™ 2200 System). […]

iNOS = iNOS expression in colon of AOM-treated mice (western blot); format: in vivo, ICR mice; conditions: western blot of colon mucosa
Protocol: as §1

[1] = tested on: colon ACF and colon tumors in AOM treated mice; test: AOM-treated mice, colon aberrant crypt foci and tumors; format: in vivo, ICR mice
Protocol: as §1

HCV NS3/4A protease = HCV NS3/4A protease (Hepatitis C virus genotype 1a, UniProt P27958); test: Inhibition against HCV protease; format: biochemical
Sequence of HCV NS3/4A protease (P27958 1027-1657): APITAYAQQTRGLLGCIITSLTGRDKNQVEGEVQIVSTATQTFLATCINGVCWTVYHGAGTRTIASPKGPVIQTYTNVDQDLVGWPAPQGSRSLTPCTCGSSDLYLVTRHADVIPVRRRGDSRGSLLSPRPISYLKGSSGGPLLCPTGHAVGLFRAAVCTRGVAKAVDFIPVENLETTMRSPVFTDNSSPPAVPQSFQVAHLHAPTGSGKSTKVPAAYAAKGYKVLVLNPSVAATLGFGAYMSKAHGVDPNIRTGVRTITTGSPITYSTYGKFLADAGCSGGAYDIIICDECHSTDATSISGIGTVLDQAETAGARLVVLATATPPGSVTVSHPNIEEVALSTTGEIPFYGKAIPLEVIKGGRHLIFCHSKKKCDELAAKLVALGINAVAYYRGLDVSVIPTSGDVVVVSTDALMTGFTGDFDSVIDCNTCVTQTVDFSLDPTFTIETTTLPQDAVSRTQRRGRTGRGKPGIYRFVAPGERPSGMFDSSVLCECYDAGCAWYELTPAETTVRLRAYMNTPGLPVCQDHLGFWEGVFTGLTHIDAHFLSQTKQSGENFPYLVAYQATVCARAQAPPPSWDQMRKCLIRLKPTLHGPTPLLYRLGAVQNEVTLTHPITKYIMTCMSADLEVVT
Sequence of HCV NS3/4A protease (P27958 1658-1711): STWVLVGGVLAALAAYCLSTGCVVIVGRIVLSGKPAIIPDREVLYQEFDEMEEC
Protocol: An aliquot (2 μl) of test compounds dissolved in DMSO was added to each well of a 384-well black Assay plate, followed by addition of 8 μl of HCV NS3/4A protease solution (0.5 μg/ml). The reaction was initiated by adding 10 μl of freshly diluted substrate (100× dilution of a DMSO stocking solution). The mixture was incubated at room temperature for 30 min, and the fluorescence intensity was measured at 485 nm for excitation and 535 nm for emission by a TECAN GENios plate reader. […] All fluorescence values were corrected with a substrate blank. Samples were assayed at different concentrations to plot a concentration VS. inhibition percentage curve, and IC50 values were obtained from the curve for each sample. A known HCV protease inhibitor, embelin, was used as a reference. Discussion

- IC50 (HCV NS3/4A protease; HCV NS3/4A protease 0.5 μg/ml, 30 min, room temperature): 980 nM
- HCV protease inhibitory activity relative to embelin (HCV NS3/4A protease; fold stronger than embelin): 10 fold
Structure (SMILES): CCCC(=O)Oc1cc(OC(=O)CCC)c2c(c1)OC(c1cc(OC(=O)CCC)c(OC(=O)CCC)c(OC(=O)CCC)c1)C(OC(=O)c1cc(OC(=O)CCC)c(OC(=O)CCC)c(OC(=O)CCC)c1)C2 (stereo not drawn) [Compound 1g, EGCG-octabutyrate]
- COX-2 expression in mice colon (COX-2): dose-dependent inhibitory effect
- iNOS expression in mice colon (iNOS): dose-dependent inhibitory effect
- Colon tumors ([1]; AOM treated mice, FIG. 7): inhibited to a lesser level
- Tumorogenesis in terms of number and size of ACF ([1]; AOM-injected male ICR mice, dietary supplementation): significantly suppressed tumorogenesis

Reference: patent US9018248B2, “Fatty acid derivatives of catechins and methods of their use” (Genesis Group Inc., priority 2010, dated 2015)
